According to US20040086949A1, “Method for preparing a ligand presenting assembly (LPA), an LPA and uses thereof” (Statens Serum Institut, priority 1998, published 2004):
Ends that are not written are not given here.

What was measured:
[1] = test system: IgM antibodies in sera from patients with neuroborreliosis; experiment: Indirect IgM-ELISA with LPA-I or biotinylated-pepC10 as coated antigen; type: binding, human; details: NB sera (n = 97), sera diluted 1/200, 98% specific cut-off
Description: The capability of LPA-I according to the present invention to react with sera from patients with neuroborreliosis was evaluated against that of an ELISA based on biotinylated-pepC10, wherein pepC10 is identical to the amino acid sequence of Seq. ID 1.
Preparing plates for the LPA-I-ELISA: Microtiter plates (Maxisorb; Nunc, Roskilde, Denmark) were coated overnight at 4° C. with 0.6 μg/ml of LPA-I diluted in 0.05 M bicarbonate pH 9.6, blocked with 3% (w/v) milk powder in phosphate-buffered saline (PBS) for 1 h, and reacted with sera diluted 1/200 in 1% (w/v) milk powder in PBS containing 0.05% Tween 20 (PBST) and 0.7 M NaCl for 2 h. The secondary antibody was a peroxidase conjugated rabbit anti-human IgM (Dako, Denmark, codes P-215) diluted 1/1000 in 1% (w/v) milk powder in PBST. After 1 h of incubation, bound secondary antibody was quantitated by colouring with o-phenylenediamine and H2O2 in citrate buffer (Sigma, St. Louis, Mo.) for 30 min. Optical density (OD) at 492 nm was determined in a plate reader (EAR 400 AC-SLT, Labinstruments, Austria). Plates were washed extensively with PBST-0.5M NaCl between each incubation step. The 98% specific diagnostic cut-off level was OD of 0.270 for IgM detection.
Preparing plates for the biotinylated-pepC10-ELISA: ELISAs with biotinylated-pepC10, were performed essentially as described above for LPA-I, except that microtiter plates were first coated with streptavidin (2.5 μg/ml) (Zymed, S. Avidinii) in citrate buffer (pH 5) overnight at 4° C., and then incubated with biotinylated pepC10 (0.1 μg/ml) in 1% (w/v) milk powder in PBST-0.37 M NaCl overnight at 4° C.
(i) Sera from 97 Danish patients with neuroborreliosis (NB). All patients had been hospitalised in 1994 ([…] between 4 and 80 years of age; median age, 49). The selection was based on a positive test for B. burgdorferi specific intrathecal antibody synthesis. The diagnosis was further corroborated by the presence of lymphocytic pleocytosis in CSF (median cell count, 124/μl) and one of the following manifestations: lymphocytic meningoradiculitis with typical painful radiculitis, mononeuritis multiplex (Bannwarth's syndrome), radiculomyelitis, monosymptomatic fascialis paresis (all children), subacute lymphocytic meningitis, and chronic progressive encephalomyelitis. Of the 100 patients, 48 recalled a previous EM-like skin lesion. Disease duration, defined as the time from onset of neurological symptoms until diagnostic blood and CSF samples were taken, ranged from 1 week to 26 weeks (median duration, 3 weeks).
Sera from 80 healthy controls were used for determination of the 98%-specific cut-off level in ELISAs.

[2] = test system: C-terminal B-cell epitope of OspC; experiment: Immunogenicity of LPA-VI in mice, serum Ig ELISA against recombinant OspC and LPA-I; type: in vivo; details: five female C57 black mice, 5 μg i.p. on days 0 and 14 with Al(OH)3 and Freund's incomplete adjuvant, sera diluted 200 fold
Description: The capability of an LPA according to the present invention to induce a humoral immune response was studied by immunising mice with LPA-VI. Five female C57 black mice (age 6 to 8 weeks) were immunised two times intraperitoneally with a 2-week interval and were bled on days 0, 14, and 28. Each immunisation dose contained. 5 μg of LPA-VI dissolved in 0.25 ml 0.9% NaCl and supplemented with 1 mg Al(OH)3 (Superfos Biosector, Denmark) and 0.25 ml Freund's incomplete adjuvant. The serum samples were diluted 200 fold and then tested by ELISA for Ig reactivity against OspC produced on recombinant form (WO 97/42221) and LPA-I (FIG. 8).
FIG. 8. Mean ELISA titer of sera from five mice immunised with LPA-VI on days 0 and 14. The microdilution plates were coated with LPA-I (diamond) or recombinant OspC (Squares), and the sera were analysed in a 200-fold dilution.

Substance: FmocN(CH2CO-ProValValAlaGluSerProLysLysPro-OH)2 [LPA-I]
- % of IgM reactive sera (frequency of positive Lyme borreliosis sera) [1]: 42.3%
- No. of IgM reactive sera [1]: 41

Substance: (HO-ProLysLysProSerGluAlaValValPro-COCH2)2N-Lys(AlaSerAlaAlaAlaGluIleGlyAlaPheAsnTrpGlnGlnGluThrMet-H)2 [LPA-VI]
- induction of antibodies against the C-terminal B-cell epitope of OspC [2]: highly effective in inducing antibodies

Substance: biotinylated-pepC10: biotinylated peptide; pepC10 is identical to the amino acid sequence of Seq. ID 1 (ProValValAlaGluSerProLysLysPro), bound to streptavidin-coated plates (PVVAESPKKP; also: biotinylated, place not given here) [reference compound]
- % of IgM reactive sera (frequency of positive Lyme borreliosis sera) [1]: 43.3%
- No. of IgM reactive sera [1]: 42
